Data as given in patent US20230117034A1, “PYRAZOLOTRIAZINES” (Bayer Aktiengesellschaft, priority 2019, published 2023).

Legend:
[1] = tested on: BRCA1 mRNA expression in MDA-MB-231 cells; assay: qRT-PCR assay: BRCA1 mRNA expression in MDA-MB-231; type: cell-based, human; conditions: Homo sapiens, MDA-MB-231, Inhibition of BRCA1 mRNA expression in MDA-MB-231 cells; median; read-out: RTqPCR-MDA-MB-231, IC50, BRCA1 (median)
Method in brief: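 Cells were seeded at 200,000 cells/well, left 24 h, then exposed continuously to test substances for 24 h. Total RNA (600 ng) was reverse-transcribed to cDNA and amplified by qPCR, and transcript levels were normalised to GAPDH housekeeping expression.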

[2] = tested on: MDA-MB-231, human breast cancer cells; assay: Proliferation assay MDA-MB-231 (crystal violet, 4 days); type: cell-based; conditions: Homo sapiens, MDA-MB-231, 96 h, MDA-MB-231 cells, median, read-out: Prolif-MDA MB-231, IC50-[mol/l] (median)
Method in brief: (§1)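 Cells seeded at 4,000/well in medium with 10% FCS; after 24 h, compounds added at 0.01-10 µmol/L (0.1% DMSO) for 4 days. Glutaraldehyde-fixed, crystal violet-stained, absorbance at 595 nm normalized to zero-point plate (0%) and untreated cells (100%); IC50 by 4-parameter fit.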

[3] = tested on: CAL-120, human breast adenocarcinoma cells; assay: Proliferation assay CAL-120 (crystal violet, 4 days); type: cell-based; conditions: Homo sapiens, CAL-120, 96 h, CAL-120 cells, median, read-out: Prolif-CAL-120, IC50-[mol/l] (median)
Method in brief: as §1

[4] = target: T1, CYCLIN K (nuclear staining in CAL-120 cells) (Homo sapiens, UniProt O75909); assay: CYCLIN K nuclear protein level: immunofluorescence high content analysis (CAL-120); type: cell-based; conditions: 24 h, 50% reduction of nuclear CCNK staining intensity, median, read-out: CYCLIN K degradation IF, DC50-[mol/l] (median)
T1 construct: endogenous in cells; host or cells: CAL-120 human breast cancer cells (DSMZ ACC 459)
Method in brief: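 CAL-120 breast cancer cells treated in dose-response for 24 h at 37 °C, PFA-fixed and immunostained for cyclin K with Hoechst counterstain. Confocal imaging quantified nuclear intensity; DC50 is the concentration giving 50% reduction of nuclear CCNK staining, normalized to DMSO and control.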

T1 sequence (O75909 whole entry): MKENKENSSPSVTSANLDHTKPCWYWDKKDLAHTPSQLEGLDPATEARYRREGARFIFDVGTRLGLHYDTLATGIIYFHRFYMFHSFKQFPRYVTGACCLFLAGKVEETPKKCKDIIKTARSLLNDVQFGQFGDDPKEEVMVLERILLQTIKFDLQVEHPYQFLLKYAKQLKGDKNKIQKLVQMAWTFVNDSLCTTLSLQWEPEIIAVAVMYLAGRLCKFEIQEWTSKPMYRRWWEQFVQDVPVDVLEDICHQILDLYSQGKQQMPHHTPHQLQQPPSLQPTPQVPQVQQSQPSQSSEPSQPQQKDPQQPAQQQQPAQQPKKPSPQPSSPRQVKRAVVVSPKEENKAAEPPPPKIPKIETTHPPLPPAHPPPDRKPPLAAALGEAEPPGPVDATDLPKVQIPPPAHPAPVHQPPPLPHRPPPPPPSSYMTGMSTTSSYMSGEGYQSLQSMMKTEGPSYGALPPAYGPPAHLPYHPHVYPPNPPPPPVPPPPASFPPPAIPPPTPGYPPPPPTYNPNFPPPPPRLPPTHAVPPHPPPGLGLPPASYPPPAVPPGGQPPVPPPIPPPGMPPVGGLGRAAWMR
T1 sequence (Q9NYV4 whole entry partner): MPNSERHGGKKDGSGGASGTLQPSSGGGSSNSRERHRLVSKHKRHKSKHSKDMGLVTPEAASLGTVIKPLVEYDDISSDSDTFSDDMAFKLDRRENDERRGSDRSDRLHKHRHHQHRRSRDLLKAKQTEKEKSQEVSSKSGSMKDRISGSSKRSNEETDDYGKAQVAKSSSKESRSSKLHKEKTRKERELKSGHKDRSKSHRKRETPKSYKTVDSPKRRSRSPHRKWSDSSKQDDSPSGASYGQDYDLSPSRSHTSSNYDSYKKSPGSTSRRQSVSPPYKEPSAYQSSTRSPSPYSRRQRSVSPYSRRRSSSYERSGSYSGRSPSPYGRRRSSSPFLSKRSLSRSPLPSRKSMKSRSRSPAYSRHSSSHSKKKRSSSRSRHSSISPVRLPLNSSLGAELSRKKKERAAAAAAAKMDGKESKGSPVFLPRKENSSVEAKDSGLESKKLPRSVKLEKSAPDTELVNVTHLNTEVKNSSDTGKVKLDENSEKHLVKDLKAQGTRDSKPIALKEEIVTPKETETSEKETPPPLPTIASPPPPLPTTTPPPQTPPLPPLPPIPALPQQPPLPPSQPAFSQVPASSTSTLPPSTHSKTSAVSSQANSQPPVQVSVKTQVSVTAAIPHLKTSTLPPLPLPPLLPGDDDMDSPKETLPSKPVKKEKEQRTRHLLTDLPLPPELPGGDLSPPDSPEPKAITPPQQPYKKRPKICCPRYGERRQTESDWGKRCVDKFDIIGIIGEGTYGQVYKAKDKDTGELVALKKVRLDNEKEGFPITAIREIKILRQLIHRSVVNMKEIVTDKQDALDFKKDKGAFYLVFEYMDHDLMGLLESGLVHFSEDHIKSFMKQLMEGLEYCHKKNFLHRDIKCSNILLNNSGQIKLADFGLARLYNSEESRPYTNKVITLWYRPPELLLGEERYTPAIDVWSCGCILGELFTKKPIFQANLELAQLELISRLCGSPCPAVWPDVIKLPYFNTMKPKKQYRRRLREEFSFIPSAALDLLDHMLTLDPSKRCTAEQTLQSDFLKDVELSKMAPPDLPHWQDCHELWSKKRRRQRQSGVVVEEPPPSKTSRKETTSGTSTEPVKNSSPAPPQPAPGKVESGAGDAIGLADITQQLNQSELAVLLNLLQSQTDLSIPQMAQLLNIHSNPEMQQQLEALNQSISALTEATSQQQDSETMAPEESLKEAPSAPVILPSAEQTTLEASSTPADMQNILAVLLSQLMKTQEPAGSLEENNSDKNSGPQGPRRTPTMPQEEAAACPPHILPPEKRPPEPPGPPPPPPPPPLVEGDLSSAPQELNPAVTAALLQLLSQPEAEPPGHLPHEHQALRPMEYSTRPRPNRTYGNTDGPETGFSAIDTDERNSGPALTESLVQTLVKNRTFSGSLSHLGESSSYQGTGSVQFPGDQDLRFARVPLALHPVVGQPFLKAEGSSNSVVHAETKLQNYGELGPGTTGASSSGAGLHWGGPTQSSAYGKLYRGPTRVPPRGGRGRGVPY

What does the source list for FC(F)(F)c1cnn2c(NCc3nc4ccccc4[nH]3)nc(N3CCOCC3)nc12 [Example 241, N-[(1H-benzimidazol-2-yl)methyl]-2-(morpholin-4-yl)-8-(trifluoromethyl) pyrazolo[1,5-a][1,3,5]triazin-4-amine]?
IC50 [1]: 17.3 nM; IC50 [2]: 28.9 nM; IC50 [3]: 29.6 nM; DC50 [4]: 1.26 nM

Which results are given for Fc1ccc2[nH]c(CNc3nc(N4C[C@@H]5CCCN[C@@H]5C4)nc4c(C5CC5)cnn34)nc2c1F [Example 171, 8-cyclopropyl-N-[(4,5-difluoro-1H-benzimidazol-2-yl)methyl]-2-[(4aS,7aS)-octahydro-6H-pyrrolo[3,4-b]pyridin-6-yl]pyrazolo[1,5-a][1,3,5]triazin-4-amine]?
IC50 [1]: 1.03 nM; IC50 [2]: 5.49 nM; IC50 [3]: 2.66 nM; DC50 [4]: 0.981 nM

Fc1ccc2[nH]c(CNc3nc(N4C[C@@H]5C[C@H]4CO5)nc4c(C5CC5)cnn34)nc2c1 [Example 185, 8-cyclopropyl-N-[(5-fluoro-1H-benzimidazol-2-yl)methyl]-2-[(1S,4S)-2-oxa-5-azabicyclo[2.2.1]heptan-5-yl]pyrazolo[1,5-a][1,3,5]triazin-4-amine] was tested. Which IC50 [1] did it give?
Its IC50 is 26.6 nM.

What about the IC50 [2] of the same compound?
Its IC50 is 58.8 nM.

What about the IC50 [3] of the same compound?
The IC50 was 18.6 nM.

And the DC50 [4]?
The DC50 was 2 nM.

Which results are given for C[C@@H]1CN(c2nc(NCc3nc4c(F)c(F)ccc4[nH]3)n3ncc(C4CC4)c3n2)C[C@H](C)N1 [Example 170, 8-cyclopropyl-N-[(4,5-difluoro-1H-benzimidazol-2-yl)methyl]-2-[(3R,5S)-3,5-dimethylpiperazin-1-yl]pyrazolo[1,5-a][1,3,5]triazin-4-amine]?
IC50 [1]: 0.419 nM; IC50 [2]: 2.25 nM; IC50 [3]: 1 nM; DC50 [4]: 0.415 nM

CN1CC2CCC(C1)N2c1nc(NCc2nc3ccccc3[nH]2)n2ncc(Br)c2n1 [Example 226, N-(1H-benzimidazol-2-ylmethyl)-8-bromo-2-(3-methyl-3,8-diazabicyclo[3.2.1]octan-8-yl)pyrazolo[1,5-a][1,3,5]triazin-4-amine] was tested. Which IC50 [2] did it give?
Its IC50 is 162 nM.

What about the IC50 [3] of the same compound?
The IC50 was 116 nM.

What about the DC50 [4] of the same compound?
The DC50 was 3.89 nM.

With OC[C@@H]1CCCCN1c1nc(NCc2nc3cc(F)ccc3[nH]2)n2ncc(C3CC3)c2n1 [Example 191, [(2S)-1-(8-cyclopropyl-4-{[(5-fluoro-1H-benzimidazol-2-yl)methyl]amino}pyrazolo[1,5-a][1,3,5]triazin-2-yl)piperidin-2-yl]methanol] as the compound, how does the IC50 [1] read?
The IC50 was 2.18 nM.

What about the IC50 [2] of the same compound?
The IC50 was 9.68 nM.

And the IC50 [3]?
Its IC50 is 1.16 nM.

What about the DC50 [4] of the same compound?
Its DC50 is 0.187 nM.

With CN1CC2CN(c3nc(NCc4nc5ccccc5[nH]4)n4ncc(Br)c4n3)CC2C1 (stereo not drawn) [Example 240, N-(1H-benzimidazol-2-ylmethyl)-8-bromo-2-(2-methyl-1,3,3a,4,6,6a-hexahydropyrrolo[3,4-c]pyrrol-5-yl)pyrazolo[1,5-a][1,3,5]triazin-4-amine] as the compound, how does the IC50 [1] read?
Its IC50 is 7.69 nM.

What about the IC50 [2] of the same compound?
Its IC50 is 38.6 nM.

And the IC50 [3]?
Its IC50 is 23.7 nM.

And the DC50 [4]?
The DC50 was 1.09 nM.

For Fc1ccc2[nH]c(CNc3nc(N4C[C@@H]5C[C@H]4CO5)nc4c(C5CC5)cnn34)nc2c1F [Example 173, 8-cyclopropyl-N-[(4,5-difluoro-1H-benzimidazol-2-yl)methyl]-2-[(1S,4S)-2-oxa-5-azabicyclo[2.2.1]heptan-5-yl]pyrazolo[1,5-a][1,3,5]triazin-4-amine], which IC50 [1] is on record?
The IC50 was 4.58 nM.

And the IC50 [2]?
Its IC50 is 20.8 nM.

And the IC50 [3]?
Its IC50 is 8.14 nM.

What about the DC50 [4] of the same compound?
The DC50 was 1.03 nM.

Cc1ccc2[nH]c(CNc3nc(N4C[C@@H]5CCCN[C@@H]5C4)nc4c(Br)cnn34)nc2c1 [Example 203, 8-bromo-N-[(5-methyl-1H-benzimidazol-2-yl)methyl]-2-[(4aS, 7aS)-octahydro-6H-pyrrolo[3,4-b]pyridin-6-yl]pyrazolo[1,5-a][1,3,5]triazin-4-amine] was tested. Which IC50 [1] did it give?
Its IC50 is 1.19 nM.

What about the IC50 [2] of the same compound?
Its IC50 is 1.69 nM.

And the IC50 [3]?
Its IC50 is 1.02 nM.

And the DC50 [4]?
Its DC50 is 0.119 nM.

For CC1(C)CN(c2nc(NCc3nc4ccccc4[nH]3)n3ncc(Br)c3n2)CCN1 [Example 216, N-[(1H-benzimidazol-2-yl)methyl]-8-bromo-2-(3,3-dimethylpiperazin-1-yl)pyrazolo[1,5-a][1,3,5]triazin-4-amine], which IC50 [1] is on record?
The IC50 was 7.36 nM.

And the IC50 [2]?
The IC50 was 16.8 nM.

And the IC50 [3]?
The IC50 was 8.55 nM.

And the DC50 [4]?
The DC50 was 0.354 nM.

With Cc1ccc2[nH]c(CNc3nc(N4C[C@H]5C[C@@H]4CO5)nc4c(Br)cnn34)nc2c1 [Example 192, 8-bromo-N-[(5-methyl-1H-benzimidazol-2-yl)methyl]-2-[(1R,4R)-2-oxa-5-azabicyclo[2.2.1]heptan-5-yl]pyrazolo[1,5-a][1,3,5]triazin-4-amine] as the compound, how does the IC50 [1] read?
The IC50 was 2.05 nM.

What about the IC50 [2] of the same compound?
Its IC50 is 4.91 nM.

What about the IC50 [3] of the same compound?
The IC50 was 3.08 nM.

What about the DC50 [4] of the same compound?
The DC50 was 0.589 nM.

How did the IC50 [1] turn out when CC1(O)CCN(c2nc(NCc3nc4ccccc4[nH]3)n3ncc(Br)c3n2)C1 (stereo not drawn) [Example 225, 1-[4-(1H-benzimidazol-2-ylmethylamino)-8-bromo-pyrazolo[1,5-a][1,3,5]triazin-2-yl]-3-methyl-pyrrolidin-3-ol] was run?
Its IC50 is 34.8 nM.

What about the IC50 [2] of the same compound?
The IC50 was 123 nM.

What about the IC50 [3] of the same compound?
The IC50 was 62.7 nM.

Which results are given for OC1CCN(c2nc(NCc3nc4ccccc4[nH]3)n3ncc(Br)c3n2)CC1 [Example 17, 1-(4-{[(1H-benzimidazol-2-yl)methyl]amino}-8-bromopyrazolo[1,5-a][1,3,5]triazin-2-yl)piperidin-4-ol]?
IC50 [1]: 12 nM; IC50 [2]: 107 nM; DC50 [4]: 4.63 nM

Which IC50 [1] does the source give for O=C1CN(c2nc(NCc3nc4ccccc4[nH]3)n3ncc(Br)c3n2)CCN1 [Example 167, 4-(4-{[(1H-benzimidazol-2-yl)methyl]amino}-8-bromopyrazolo[1,5-a][1,3,5]triazin-2-yl)piperazin-2-one] here?
Its IC50 is 429 nM.

What about the IC50 [2] of the same compound?
Its IC50 is 707 nM.

And the IC50 [3]?
Its IC50 is 70.4 nM.

Which IC50 [1] does the source give for O[C@H]1CCN(c2nc(NCc3nc4ccccc4[nH]3)n3ncc(Br)c3n2)C1 [Example 224, (3S)-1-(4-{[(1H-benzimidazol-2-yl)methyl]amino}-8-bromopyrazolo[1,5-a][1,3,5]triazin-2-yl)pyrrolidin-3-ol] here?
The IC50 was 21.2 nM.

What about the IC50 [2] of the same compound?
Its IC50 is 128 nM.

And the IC50 [3]?
The IC50 was 57 nM.

OC1CCCN(c2nc(NCc3nc4ccccc4[nH]3)n3ncc(Br)c3n2)C1 (racemic) [Example 16, (rac)-1-(4-{[(1H-benzimidazol-2-yl)methyl]amino}-8-bromopyrazolo[1,5-a][1,3,5]triazin-2-yl)piperidin-3-ol] was tested. Which IC50 [1] did it give?
Its IC50 is 5.41 nM.

And the IC50 [2]?
The IC50 was 81.1 nM.

What about the IC50 [3] of the same compound?
Its IC50 is 38.2 nM.

CN(CCO)c1nc(NCc2nc3ccccc3[nH]2)n2ncc(Br)c2n1 [Example 237, 2-[(4-{[(1H-benzimidazol-2-yl)methyl]amino}-8-bromopyrazolo[1,5-a][1,3,5]triazin-2-yl)(methyl)amino]ethan-1-ol] was tested. Which IC50 [2] did it give?
The IC50 was 164 nM.

What about the IC50 [3] of the same compound?
Its IC50 is 164 nM.

What about the DC50 [4] of the same compound?
Its DC50 is 19.7 nM.

Which results are given for CC1CN(c2nc(NCc3nc4ccccc4[nH]3)n3ncc(C(C)C)c3n2)CCO1 (racemic) [Example 11, (rac)-N-[(1H-benzimidazol-2-yl)methyl]-2-[2-methylmorpholin-4-yl]-8-(propan-2-yl)pyrazolo[1,5-a][1,3,5]triazin-4-amine]?
IC50 [1]: 31.8 nM; DC50 [4]: 14.5 nM

What does the source list for CN1CCCC2CN(c3nc(NCc4nc5ccccc5[nH]4)n4ncc(Br)c4n3)CC21 (stereo not drawn) [Example 231, N-[(1H-benzimidazol-2-yl)methyl]-8-bromo-2-(1-methyloctahydro-6H-pyrrolo[3,4-b]pyridin-6-yl)pyrazolo[1,5-a][1,3,5]triazin-4-amine]?
IC50 [2]: 110 nM; IC50 [3]: 135 nM; DC50 [4]: 34.1 nM

How did the IC50 [1] turn out when COc1cccc2[nH]c(CNc3nc(N4C[C@H]5C[C@@H]4CO5)nc4c(C5CC5)cnn34)nc12 [Example 198, 8-cyclopropyl-N-[(4-methoxy-1H-benzimidazol-2-yl)methyl]-2-[(1R,4R)-2-oxa-5-azabicyclo[2.2.1]heptan-5-yl]pyrazolo[1,5-a][1,3,5]triazin-4-amine] was run?
The IC50 was 60.3 nM.

And the IC50 [2]?
The IC50 was 98 nM.

And the IC50 [3]?
Its IC50 is 31.1 nM.

How did the IC50 [1] turn out when CN1CCN(c2nc(NCc3nc4ccccc4[nH]3)n3ncc(-c4ccncc4)c3n2)CC1 [Example 242, N-[(1H-benzimidazol-2-yl)methyl]-2-(4-methylpiperazin-1-yl)-8-(pyridin-4-yl)pyrazolo[1,5-a][1,3,5]triazin-4-amine] was run?
Its IC50 is 514 nM.

What about the IC50 [2] of the same compound?
The IC50 was 253 nM.

What about the IC50 [3] of the same compound?
The IC50 was 857 nM.

Which IC50 [1] does the source give for C[C@@H]1CN(c2nc(NCc3nc4ccccc4[nH]3)n3ncc(Br)c3n2)CCN1 [Example 168, N-[(1H-benzimidazol-2-yl)methyl]-8-bromo-2-[(3R)-3-methylpiperazin-1-yl]pyrazolo[1,5-a][1,3,5]triazin-4-amine] here?
Its IC50 is 2.46 nM.

What about the IC50 [3] of the same compound?
Its IC50 is 3.25 nM.

And the DC50 [4]?
Its DC50 is 0.973 nM.

With CO[C@H]1CCN(c2nc(NCc3nc4ccccc4[nH]3)n3ncc(Br)c3n2)C1 [Example 222, N-[(1H-benzimidazol-2-yl)methyl]-8-bromo-2-[(3S)-3-methoxypyrrolidin-1-yl]pyrazolo[1,5-a][1,3,5]triazin-4-amine] as the compound, how does the IC50 [2] read?
Its IC50 is 182 nM.

What about the IC50 [3] of the same compound?
The IC50 was 107 nM.

And the DC50 [4]?
Its DC50 is 3.05 nM.
